Results taken from ChEMBL document CHEMBL5038569, “Targeting RECQL5 Functions, by a Small Molecule, Selectively Kills Breast Cancer in Vitro and in Vivo” (J Med Chem, 2021).
The source made the active and inactive calls. No cut-off for these calls is given here.

Assays:
[1] = system: MCF7; experiment: Cytotoxicity against human MCF7 cells expressing wild type RECQL5 assessed as cell growth inhibition measured after 72 hrs by MTT assay; format: functional; conditions: dose 6-50 µM
[2] = species: Homo sapiens; experiment: Inhibition of full length His-tagged human RECQL5 expressed in Escherichia coli incubated for 15 mins by fluorescence based assay
[3] = system: MCF7; experiment: Cytotoxicity against RECQL5 knock out human MCF7 cells assessed as cell growth inhibition measured after 72 hrs by MTT assay; format: functional; conditions: dose 6-50 µM

| Structure (SMILES) | Activity [1] | inhibition [2] | Activity [3] |
| --- | --- | --- | --- |
| O=C(Nc1cc(C(F)(F)F)cc(C(F)(F)F)c1)N[C@@H](Cc1ccccc1)c1nnc(SCc2ccccc2)o1 | Dose-Dependent Effect | inactive | Dose-Dependent Effect |
| O=C(Nc1ccc([N+](=O)[O-])cc1)N[C@@H](c1ccccc1)c1nnc(SCc2ccccc2)o1 | Dose-Dependent Effect |  | Dose-Dependent Effect |
| Cc1ccc(NC(=O)N[C@@H](Cc2ccccc2)c2nnc(SCc3ccccc3)o2)cc1 | Dose-Dependent Effect |  | Dose-Dependent Effect |
| Cc1ccc(NC(=O)N[C@@H](c2ccccc2)c2nnc(SCc3ccccc3)o2)cc1 | Dose-Dependent Effect |  | Dose-Dependent Effect |
| O=C(NCc1nnc(SCc2ccccc2)o1)Nc1cc(C(F)(F)F)cc(C(F)(F)F)c1 | Dose-Dependent Effect |  | Dose-Dependent Effect |
| O=C(Nc1ccc([N+](=O)[O-])cc1)N[C@@H](Cc1ccccc1)c1nnc(SCc2ccccc2)o1 | Dose-Dependent Effect |  | Dose-Dependent Effect |
| COc1ccc(NC(=O)N[C@@H](c2ccccc2)c2nnc(SCc3ccccc3)o2)cc1 | inactive |  | inactive |
| COc1ccc(NC(=O)N[C@@H](Cc2ccccc2)c2nnc(SCc3ccccc3)o2)cc1 | Dose-Dependent Effect |  | Dose-Dependent Effect |
